Experimental findings from patent US20260356856A1, “KRAS G12S AND G12C INHIBITORS” (MIRATI THERAPEUTICS, INC., priority 2023, published 2026) are described below.

Assay [1] addresses T1, KRas-mediated phosphorylation of ERK in A549 cells (Homo sapiens, UniProt P01116, G12S).
T1 construct: pERK HTRF read-out
Put plainly: Inhibition of KRas-mediated phosphorylation of ERK (HTRF), A549 cells. It is filed as cell-based. The settings on record: HTRF pERK, 3 h incubation. On the technique in general: TR-FRET usually uses a lanthanide donor and a delayed reading to cut background.

The next assay has as its target T2, KRas G12C (Homo sapiens, UniProt P01116, G12C).
T2 construct: Biotinylated KRas (corresponding to amino acids 1-169, produced at Accelegan Inc.); biotin (biotinylated); purchased Accelegan Inc
Put plainly: KRas binding assay, TR-FRET displacement of Cy5 labelled tracer. As to conditions: 60-minute incubation at room temperature, 1% DMSO, pH 7.5. Summed up:
(§1)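 TR-FRET tracer-displacement readout after 60 min at room temperature, using KRas residues 1-169 (biotinylated) with terbium streptavidin and a Cy5 tracer. Buffer: 50 mM HEPES pH 7.5, 5 mM MgCl2, 0.005% Tween-20, 1 mM DTT, 1% DMSO final. IC50 from 4-parameter fit of POC data.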

The target of a further assay is T3, KRas WT (Homo sapiens, UniProt P01116).
T3 construct: Biotinylated KRas (corresponding to amino acids 1-169, produced at Accelegan Inc.); biotin (biotinylated); purchased Accelegan Inc
T3 sequence (P01116 1-169 isoform P01116-2): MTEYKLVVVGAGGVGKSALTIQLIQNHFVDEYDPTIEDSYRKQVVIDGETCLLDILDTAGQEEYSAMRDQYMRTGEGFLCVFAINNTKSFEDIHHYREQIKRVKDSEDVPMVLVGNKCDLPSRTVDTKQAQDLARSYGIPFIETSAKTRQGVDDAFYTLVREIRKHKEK
The assay is described as above. As to conditions: 60-minute incubation at room temperature, 1% DMSO, pH 7.5. Summed up:
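Compound competes with tracer for biotin-labelled KRas (amino acids 1-169) bound to terbium-streptavidin. Incubation runs 60 minutes at room temperature, final DMSO 1%. IC50 values derive from a 4-parameter fit.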

The target in a further assay is T4, KRas G12S (Homo sapiens, UniProt P01116, G12S).
T4 construct: Biotinylated KRas (corresponding to amino acids 1-169, produced at Accelegan Inc.); biotin (biotinylated); purchased Accelegan Inc
T4 sequence (P01116 1-169 isoform P01116-2 G12S): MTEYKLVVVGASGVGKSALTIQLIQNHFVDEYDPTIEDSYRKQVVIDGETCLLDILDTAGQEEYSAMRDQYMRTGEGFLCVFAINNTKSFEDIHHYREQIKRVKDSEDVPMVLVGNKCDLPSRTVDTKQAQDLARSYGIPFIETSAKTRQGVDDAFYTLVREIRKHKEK
The assay is described as above. As to conditions: 60-minute incubation at room temperature, 1% DMSO, pH 7.5. In short, it runs like this:
as §1

Assay [2] concerns the target T5, KRas-mediated phosphorylation of ERK in H358 cells (Homo sapiens, UniProt P01116, G12C).
T5 construct: pERK HTRF read-out
As to the kind of experiment: Inhibition of KRas-mediated phosphorylation of ERK (HTRF), H358 cells. As to conditions: HTRF pERK, 3 h incubation. It is filed as cell-based.

The target of assay [3] is T6, KRas-mediated phosphorylation of ERK in MKN1 cells (Homo sapiens, UniProt P01116).
T6 construct: pERK HTRF read-out
T6 sequence (P01116 1-188 isoform P01116-2): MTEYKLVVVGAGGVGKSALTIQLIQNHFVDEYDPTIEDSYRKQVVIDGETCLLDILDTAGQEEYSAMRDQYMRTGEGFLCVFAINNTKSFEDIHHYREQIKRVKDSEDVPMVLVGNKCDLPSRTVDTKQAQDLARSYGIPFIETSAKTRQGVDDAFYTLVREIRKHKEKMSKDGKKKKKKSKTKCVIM
Put plainly: Inhibition of KRas-mediated phosphorylation of ERK (HTRF), MKN1 cells. Type of assay: cell-based. The settings on record: MKN1 cells (KRas WT); HTRF pERK; 3 h incubation. The protocol:
Inhibition of KRas Phosphorylation of ERK (HTRF) by Exemplary Compounds of Formula (Ia) or (Ib)
Cisbio HTRF Advanced pERK Assay Catalog #64AERPEH • Cells: MKN1, PSN1 • Procedure: • 1. Day 1: Seed 6,000 cells/well −25 μl/well in 384-well white solid bottom plate; RPM1_10% FBS. Incubate overnight at 37 °C/5% CO2. • 2.

Each structure is given as a SMILES string.

T5 sequence (P01116 1-188 isoform P01116-2 G12C): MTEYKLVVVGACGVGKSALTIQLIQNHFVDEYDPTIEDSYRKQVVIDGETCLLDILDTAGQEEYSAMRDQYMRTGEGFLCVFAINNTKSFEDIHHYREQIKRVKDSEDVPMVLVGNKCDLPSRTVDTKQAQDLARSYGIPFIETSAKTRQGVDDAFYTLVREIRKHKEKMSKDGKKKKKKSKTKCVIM
T1 sequence (P01116 1-188 isoform P01116-2 G12S): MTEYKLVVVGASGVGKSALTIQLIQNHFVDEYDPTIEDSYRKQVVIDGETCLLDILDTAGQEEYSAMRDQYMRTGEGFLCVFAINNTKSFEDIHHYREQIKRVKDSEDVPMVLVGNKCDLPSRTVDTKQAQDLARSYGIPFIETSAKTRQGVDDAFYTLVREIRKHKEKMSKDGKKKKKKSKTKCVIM
T2 sequence (P01116 1-169 isoform P01116-2 G12C): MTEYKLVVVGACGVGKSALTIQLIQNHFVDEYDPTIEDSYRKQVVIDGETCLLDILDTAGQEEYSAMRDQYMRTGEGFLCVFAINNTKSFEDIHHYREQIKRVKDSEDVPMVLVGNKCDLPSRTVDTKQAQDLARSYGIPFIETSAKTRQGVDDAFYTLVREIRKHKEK

Take `CCc1c(F)ccc2cc(O)cc(-c3ncc4c(N(C)CCNC(=O)n5ccnn5)nc(OC[C@@]56CCCN5C[C@H](F)C6)nc4c3F)c12` [Example 250, N-(2-((7-(8-ethyl-7-fluoro-3-hydroxynaphthalen-1-yl)-8-fluoro-2-(((2R,7aS)-2-fluorotetrahydro-1H-pyrrolizin-7a(5H)-yl)methoxy)pyrido[4,3-d]pyrimidin-4-yl)(methyl)amino)ethyl)-1H-1,2,3-triazole-1-carboxamide]: the IC50 (in general, the point on the concentration scale where inhibition reaches its midpoint) in assay [1] is 1680 nM; at KRas G12C it was less than 2 nM; at KRas WT, 37 nM; at KRas G12S, 34 nM; in assay [2], 8 nM; in assay [3] it was 357 nM.
`CCc1c(F)ccc2cc(O)cc(-c3ncc4c(N(C)CCNC(=O)n5nccn5)nc(OC[C@@]56CCCN5C[C@H](F)C6)nc4c3F)c12` [Example 251, N-(2-((7-(8-ethyl-7-fluoro-3-hydroxynaphthalen-1-yl)-8-fluoro-2-(((2R,7aS)-2-fluorotetrahydro-1H-pyrrolizin-7a(5H)-yl)methoxy)pyrido[4,3-d]pyrimidin-4-yl)(methyl)amino)ethyl)-2H-1,2,3-triazole-2-carboxamide]: the IC50 was found to be 5440 nM in assay [1]; 21 nM at KRas G12C; 70 nM on KRas WT; 65 nM on KRas G12S; 66 nM in assay [2]; 1280 nM in assay [3].
On to `N#Cc1c(N)sc2c(F)ccc(-c3c(Cl)cc4c(N5CCN(S(=O)(=O)n6ccnn6)CC5)nc(OC[C@@]56CCCN5C[C@H](F)C6)nc4c3F)c12` [Example 252, 4-(4-(4-((1H-1,2,3-triazol-1-yl)sulfonyl)piperazin-1-yl)-6-chloro-8-fluoro-2-(((2R,7aS)-2-fluorotetrahydro-1H-pyrrolizin-7a(5H)-yl)methoxy)quinazolin-7-yl)-2-amino-7-fluorobenzo[b]thiophene-3-carbonitrile], for which the IC50 came to 806 nM in assay [1]; 48 nM at KRas G12C; 39 nM at KRas WT; 77 nM at KRas G12S; 391 nM in assay [2]; 156 nM in assay [3].
Regarding `CC(=O)N(C)C(=O)C1CCN(c2nc(OC[C@@]34CCCN3C[C@H](F)C4)nc3c(F)c(-c4ccc(F)c5sc(N)c(C#N)c45)c(Cl)cc23)CC1` [Example 253, N-acetyl-1-(7-(2-amino-3-cyano-7-fluorobenzo[b]thiophen-4-yl)-6-chloro-8-fluoro-2-(((2R,7aS)-2-fluorotetrahydro-1H-pyrrolizin-7a(5H)-yl)methoxy)quinazolin-4-yl)-N-methylpiperidine-4-carboxamide], the IC50 in assay [1] is 14 nM; at KRas G12C, 8 nM; at KRas WT, 10 nM; on KRas G12S it was 8 nM; in assay [2] it was 61 nM; in assay [3], 37 nM.
In the case of `CC(=O)N(C)C(=O)C1CCN(c2nc(OC[C@@]34CCCN3C[C@H](F)C4)nc3c(F)c(-c4ccc(F)c5sc(N)c(C#N)c45)c(Cl)cc23)CC1` [Example 254, N-acetyl-1-((S)-7-(2-amino-3-cyano-7-fluorobenzo[b]thiophen-4-yl)-6-chloro-8-fluoro-2-(((2R,7aS)-2-fluorotetrahydro-1H-pyrrolizin-7a(5H)-yl)methoxy)quinazolin-4-yl)-N-methylpiperidine-4-carboxamide], the half-maximal inhibitory concentration (IC50) in assay [1] was 5 nM; on KRas G12C it was 3 nM; at KRas WT, 4 nM; on KRas G12S it was 3 nM; in assay [2], 29 nM; in assay [3], 18 nM.
On to `CC(=O)N(C)C(=O)C1CCCN(c2nc(OC[C@@]34CCCN3C[C@H](F)C4)nc3c(F)c(-c4ccc(F)c5sc(N)c(C#N)c45)c(Cl)cc23)CC1` (stereo partly drawn) [Example 255, N-acetyl-1-(7-(2-amino-3-cyano-7-fluorobenzo[b]thiophen-4-yl)-6-chloro-8-fluoro-2-(((2R,7aS)-2-fluorotetrahydro-1H-pyrrolizin-7a(5H)-yl)methoxy)quinazolin-4-yl)-N-methylazepane-4-carboxamide], for which the 50% inhibitory concentration (IC50) stood at 28 nM in assay [1]; 14 nM at KRas G12C; 14 nM at KRas WT; 11 nM on KRas G12S; 29 nM in assay [2]; 41 nM in assay [3].
For the molecule `CCc1c(F)ccc2cc(O)cc(-c3ncc4c(N5CCC(C(=O)N(C)S(C)(=O)=O)CC5)nc(OC[C@@]56CCCN5C[C@H](F)C6)nc4c3F)c12` [Example 257, 1-(7-(8-ethyl-7-fluoro-3-hydroxynaphthalen-1-yl)-8-fluoro-2-(((2R,7aS)-2-fluorotetrahydro-1H-pyrrolizin-7a(5H)-yl)methoxy)pyrido[4,3-d]pyrimidin-4-yl)-N-methyl-N-(methylsulfonyl)piperidine-4-carboxamide], the IC50 in assay [1] is 677 nM; on KRas G12C, 5 nM; on KRas WT, 214 nM; on KRas G12S, 499 nM; in assay [2] it was 21 nM; in assay [3] it was 726 nM.
Consider `CC(=O)N(C)C(=O)CCCNc1nc(OC[C@@]23CCCN2C[C@H](F)C3)nc2c(F)c(-c3ccc(F)c4sc(N)c(C#N)c34)c(Cl)cc12` [Example 258, N-acetyl-4-((7-(2-amino-3-cyano-7-fluorobenzo[b]thiophen-4-yl)-6-chloro-8-fluoro-2-(((2R,7aS)-2-fluorotetrahydro-1H-pyrrolizin-7a(5H)-yl)methoxy)quinazolin-4-yl)amino)-N-methylbutanamide], for which the IC50 in assay [1] is 29 nM; on KRas G12C it was 3 nM; on KRas WT, 9 nM; at KRas G12S it was 4 nM; in assay [2] it was 38 nM; in assay [3] it was 84 nM.
For `CC(=O)N(C)C(=O)CCCN(C)c1nc(OC[C@@]23CCCN2C[C@H](F)C3)nc2c(F)c(-c3ccc(F)c4sc(N)c(C#N)c34)c(Cl)cc12` [Example 259, N-acetyl-4-((7-(2-amino-3-cyano-7-fluorobenzo[b]thiophen-4-yl)-6-chloro-8-fluoro-2-(((2R,7aS)-2-fluorotetrahydro-1H-pyrrolizin-7a(5H)-yl)methoxy)quinazolin-4-yl)(methyl)amino)-N-methylbutanamide], the IC50 in assay [1] stood at 19 nM; at KRas G12C, 3 nM; at KRas WT, 8 nM; at KRas G12S it was 3 nM; in assay [2], 80 nM; in assay [3], 125 nM.
With `CCc1c(F)ccc2cc(O)cc(-c3ncc4c(NCCCC(=O)N(C)C(C)=O)nc(OC[C@@]56CCCN5C[C@H](F)C6)nc4c3F)c12` [Example 261, N-acetyl-4-((7-(8-ethyl-7-fluoro-3-hydroxynaphthalen-1-yl)-8-fluoro-2-(((2R,7aS)-2-fluorotetrahydro-1H-pyrrolizin-7a(5H)-yl)methoxy)pyrido[4,3-d]pyrimidin-4-yl)amino)-N-methylbutanamide], the IC50 in assay [1] came out at 67 nM; at KRas G12C it was 14 nM; at KRas WT, 23 nM; on KRas G12S, 15 nM; in assay [2] it was 159 nM; in assay [3], 159 nM.
As for `Cc1ccn(C(=O)CCCCNc2nc(OC[C@@]34CCCN3C[C@H](F)C4)nc3c(F)c(-c4ccc(F)c5sc(N)c(C#N)c45)c(Cl)cc23)n1` [Example 262, 2-amino-4-(6-chloro-8-fluoro-2-(((2R,7aS)-2-fluorotetrahydro-1H-pyrrolizin-7a(5H)-yl)methoxy)-4-((5-(3-methyl-1H-pyrazol-1-yl)-5-oxopentyl)amino)quinazolin-7-yl)-7-fluorobenzo[b]thiophene-3-carbonitrile], the IC50 in assay [1] amounted to 381 nM; at KRas G12C, 15 nM; at KRas WT, 25 nM; at KRas G12S, 25 nM; in assay [2], 1170 nM; in assay [3] it was 593 nM.
As to `Cc1ccn(C(=O)C2CCCN(c3nc(OC[C@@]45CCCN4C[C@H](F)C5)nc4c(F)c(-c5c(I)ccc(N)c5C#N)c(Cl)cc34)CC2)n1` (stereo partly drawn) [Example 263, 6-amino-2-(6-chloro-8-fluoro-2-(((2R,7aS)-2-fluorotetrahydro-1H-pyrrolizin-7a(5H)-yl)methoxy)-4-(4-(3-methyl-1H-pyrazole-1-carbonyl)azepan-1-yl)quinazolin-7-yl)-3-iodobenzonitrile], the IC50 in assay [1] is 495 nM; at KRas G12C it was 1720 nM; at KRas WT it was 2130 nM; on KRas G12S it was 490 nM; in assay [2], greater than 10000 nM; in assay [3] it was 8920 nM.
